Assay [1] concerns AD-ERG11 (Erg11p). The assay can be described thus: MIC in liquid microdilution assay, AD-ERG11. Format: cell-based, S. cerevisiae. To be noted: Saccharomyces cerevisiae. Here is the method: (§1) The MICs of antifungal agents for S. cerevisiae cells were determined by a microdilution test based on the macrodilution reference method of the National Committee for Clinical Laboratory Standards. Cells (10 μl cell suspension, 2×10^5 cells/ml) were inoculated into 90 μl CSM-URA, buffered with 10 mM 2-(N-morpholino)ethanesulfonic acid (MES) and 18 mM N-2-hydroxyethylpiperazine-N′-2-ethanesulfonic acid (HEPES), pH 7.0 and containing 0.67% (w/v) yeast nitrogen base (YNB) in microtitre plate wells. For the uracil-requiring strain AD1-8u^− the medium was supplemented with 0.02% (w/v) uridine. The wells contained, in […], doubling dilutions of antifungal agents (final concentrations: fluconazole, 40-0.078 μg/ml; itraconazole and ketoconazole, 8-0.016 μg/ml). The microtitre plates were incubated at 30° C. for 48 h with shaking and then the growth of cells in individual wells (OD590) was measured with a microplate reader (EL 340, Bio-Tek, Winooski, Vt.). The MIC80 was the lowest concentration of drug that inhibited growth yield by at least 80% compared to a no-drug control.

The next assay deals with AD-PDR5 (Pdr5p). In words: MIC in liquid microdilution assay, AD-PDR5. Format: cell-based, S. cerevisiae. To be noted: Saccharomyces cerevisiae. On the procedure:
as §1
For orientation: Dilution methods test growth across graded concentrations, often in twofold steps.

For the next assay, the system named is AD-BEN^R (Ben^Rp). In words: Disk diffusion assay, AD-BEN^R. Format: cell-based, S. cerevisiae. To be noted: AD-pABC as negative control, 30° C., 48 h. On the procedure:
(§2) The cells were spread on CSM-agar plates and exposed to the drugs or chemicals applied to filter disks and incubated at 30° C. for 48 h. The amounts of individual drugs are given in the Materials and Methods section of Example 3. Rhodamine 6G and rhodamine 123 were dissolved in ethanol and the other antifungals were dissolved in DMSO.
(§3) Drug susceptibility was measured using disk assays on CSM-URA plates (containing 1.5% w/v agar). Yeast cells (200 μl ml of 5×10^6 cells/ml) were spread on the plates. 10 μl of drug solution or solvent control were spotted onto sterile Whatman paper disks on the pre-spread plates. The following amounts (nmoles) of drugs were applied to individual disks: fluconazole, 633 (Pfizer Ltd., Sandwich, Kent, United Kingdom); itraconazole, 0.23 (Janssen); miconazole, 0.42 (Janssen); cycloheximide, 0.71 (Sigma); rhodamine 6G, 100 (Sigma, Penrose, Auckland, N. Z.); rhodamine 123, 125 (Sigma); cerulenin 4.5 (Sigma); 5-flucytosine 100 (Sigma); amphotericin B, 97 (E. R. Squibb & Sons, Princeton, N.J.); nystatin 65 (Sigma). Agar plates were incubated at 30° C. for 48 h or until clear growth inhibition zones were visible.
For orientation: A growth-free zone around the sample is the usual read-out of agar diffusion tests.

Assay [2] concerns S. cerevisiae AD1-8 sec6-4/CDR1. In words: MIC microdilution test, sec6-4 host with CDR1. In kind it is cell-based. To be noted: Saccharomyces cerevisiae, 30° C. On the procedure:
as §1

Assay [3] concerns AD-ERG11 (Erg11p). The assay can be described thus: Disk diffusion assay, AD-ERG11. Particulars: AD-pABC as negative control, 30° C., 48 h. In kind it is cell-based, S. cerevisiae. Here is the method: as §2, §3
The subject of assay [4] is S. cerevisiae AD1-8u^− hyper-expressing CDR1-1. In words: MIC, CDR1 allele 1 hyper-expressed. In kind it is cell-based. Particulars: Saccharomyces cerevisiae; hyper-expression of CDR1-1 allele. On the procedure:
as §1

The test system of assay [5] is AD-CDR1 (Cdr1p). The assay can be described thus: Disk diffusion assay, AD-CDR1. Format: cell-based, S. cerevisiae. To be noted: AD-pABC as negative control, 30° C., 48 h. On the procedure: as §2, §3
For assay [6], the system named is S. cerevisiae AD1-8u^− hyper-expressing CDR1-2. In words: MIC, CDR1 allele 2 hyper-expressed. Format: cell-based. To be noted: Saccharomyces cerevisiae; hyper-expression of CDR1-2 allele. Here is the method: as §1
In assay [7] the test system is AD-CDR1 (Cdr1p). The assay can be described thus: MIC in liquid microdilution assay, AD-CDR1. To be noted: Saccharomyces cerevisiae. Format: cell-based, S. cerevisiae. On the procedure: as §1
In assay [8] the target is S. cerevisiae plasma membrane H^+-ATPase (Pma1p) (Saccharomyces cerevisiae, UniProt P05030). The assay can be described thus: Plasma membrane H+-ATPase inhibition. In kind it is biochemical. To be noted: read-out: 150 for plasma membrane H^+-ATPase.
Chain of S. cerevisiae plasma membrane H^+-ATPase (Pma1p) (P05030 whole entry): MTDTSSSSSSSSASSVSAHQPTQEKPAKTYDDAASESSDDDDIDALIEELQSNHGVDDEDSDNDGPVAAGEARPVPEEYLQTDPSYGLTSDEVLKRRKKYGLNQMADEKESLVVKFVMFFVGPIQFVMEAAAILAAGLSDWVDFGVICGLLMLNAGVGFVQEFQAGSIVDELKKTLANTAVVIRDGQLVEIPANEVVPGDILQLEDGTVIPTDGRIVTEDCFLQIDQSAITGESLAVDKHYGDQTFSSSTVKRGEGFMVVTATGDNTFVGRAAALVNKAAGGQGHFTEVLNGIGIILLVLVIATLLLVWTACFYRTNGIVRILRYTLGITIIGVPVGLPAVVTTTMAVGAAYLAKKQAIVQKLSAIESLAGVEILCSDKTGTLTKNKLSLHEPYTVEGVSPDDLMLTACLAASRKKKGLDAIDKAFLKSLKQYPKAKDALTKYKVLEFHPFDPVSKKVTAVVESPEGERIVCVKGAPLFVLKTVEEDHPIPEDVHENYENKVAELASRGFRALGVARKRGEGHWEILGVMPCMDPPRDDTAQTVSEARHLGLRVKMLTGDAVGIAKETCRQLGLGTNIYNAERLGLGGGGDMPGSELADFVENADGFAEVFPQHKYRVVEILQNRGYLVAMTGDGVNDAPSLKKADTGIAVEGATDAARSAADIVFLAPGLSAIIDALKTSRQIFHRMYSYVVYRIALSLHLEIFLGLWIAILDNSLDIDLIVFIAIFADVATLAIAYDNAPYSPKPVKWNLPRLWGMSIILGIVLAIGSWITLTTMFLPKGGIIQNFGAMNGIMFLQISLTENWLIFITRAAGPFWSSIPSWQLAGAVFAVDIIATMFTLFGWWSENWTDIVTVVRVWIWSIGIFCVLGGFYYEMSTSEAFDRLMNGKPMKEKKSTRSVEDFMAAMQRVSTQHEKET
Another assay concerns AD1002. In words: Disk drug susceptibility assay of chemosensitisation to fluconazole. In kind it is cell-based, S. cerevisiae. To be noted: 5 μg/ml fluconazole, 12 nanomole peptide on disk. Here is the method: (A) Checkerboard drug susceptibility assay of AD1002. This assay was conducted as described in Materials and methods in the presence of the indicated concentrations of fluconazole and KN20. (B) Disk drug susceptibility assay of AD1002. This assay was conducted, as described in Materials and methods for Example 4, in the absence or presence of 5 μg/ml fluconazole, with (1) KN0 (12 nanomole), (2) KN20 (12 nanomole) or (0) control amounts of DMSO applied to the disks. (C) Checkerboard drug susceptibility assay of ATCC 10261. This assay was conducted, as described in Material and methods for Example 4, in the presence of the indicated concentrations of fluconazole and KN20. D indicates cell death as measured by a failure to recover any colony forming units when samples from microtitre plate wells were cultured on solid YPD medium.
Drug susceptibility was measured using disk assays on CSM-URA plates (containing 1.5% w/v agar). Plates were seeded with yeast cells suspended in top agar (5 ml, 10^5 cells/ml). For the uracil-dependent parental strain, agar was supplemented with 0.02% uridine. Five microliters of drug solution or solvent control were spotted onto sterile Whatman paper disks on the top agar. […]

Another assay concerns C. parapsilosis 425. In words: Checkerboard chemosensitisation to fluconazole. Format: cell-based. To be noted: KN20 0-80 μM and FCZ 32 μg/ml tested, no chemosensitisation. Here is the method: Checkerboard drug susceptibility assays were used to measure the chemosensitisation of cells to fluconazole by test compounds such as Pdr5p inhibitors. […] Cell inocula, growth conditions and the optical determination of growth were identical to standard liquid MIC determinations. The assays were conducted in 6 by 6 well arrays centred in a 96 well microtitre plate using buffered CSM-URA medium at pH 7.0, with fluconazole and/or peptide included in each well at the indicated concentration.

We go through two molecules from patent publication US8728797B2, “Yeast membrane protein expression system and its application in drug screening” (priority 2001, dated 2014).

Converted amounts (≈) assume the structure as drawn. Marks after values point to notes of the source that are not given here.

As usually defined, the MIC is the lowest concentration found to suppress growth. One may read the MIC80 as an inhibitory concentration at the 80% level, which refers to growth in some studies and to a panel of isolates in others. Low readings indicate greater potency, high ones weaker potency. For the molecule `OC(Cn1cncn1)(Cn1cncn1)c1ccc(F)cc1F` [fluconazole], the MIC was found to be 2 µg/mL (≈ 6.53 µM) against AD-ERG11 (Erg11p) [1]; 400 µg/mL (≈ 1310 µM) in the assay with AD-PDR5 (Pdr5p); 400 µg/mL (≈ 1310 µM) in assay [4]; 80 µg/mL (≈ 261 µM) in assay [6]; 400 µg/mL (≈ 1310 µM) against AD-CDR1 (Cdr1p) [7]. Also, the “resistance/sensitivity in disk diffusion assay” value in the assay with AD-BEN^R (Ben^Rp) is given as “resistant”; in the assay with AD-ERG11 (Erg11p) [3], “modest resistance”; with AD-CDR1 (Cdr1p) [5], “resistances”. This molecule showed an MIC80 in assay [2] of 80 µg/mL (≈ 261 µM).

As to “D-octapeptide NH2-Asn-Trp-Trp-Lys-Val-Arg-Arg-Arg-CONH2 with a single 4-methoxy-2,3,6-trimethylbenzenesulphonyl (Mtr) substituent on one tryptophan sidechain; Pdr5p inhibitor [KN20]”, the IC50 in assay [8] worked out at 10 µM. Moreover, in the assay on AD1002, the “chemosensitisation to fluconazole in disk assay” value was “chemosensitises”. In addition, in the assay on C. parapsilosis 425, the “Fold-sensitisation by KN20 (For FCZ MIC)” value is 1^b fold.
